Concentration data for one molecule are collected here from ChEMBL document CHEMBL4387754, “Chemical modification-mediated optimisation of bronchodilatory activity of mepenzolate, a muscarinic receptor antagonist with anti-inflammatory activity” (Bioorg Med Chem, 2019).

Each structure is given as a SMILES string.

The nature of series [1]: Plasma concentration in ICR mouse at 10 mg/kg administered intratracheally measured after 1 min by RP-HPLC analysis. The series is classed as ADME, organism-based. The note with it: inhaled or intranasal.
Series [2] can be described thus: Plasma concentration in ICR mouse at 7.5 mg/kg, iv measured after 1 min by RP-HPLC analysis. The format is ADME, organism-based.

Take `C[N+]1(C)[C@@H]2C[C@@H](OC(=O)C(O)(c3cccs3)c3cccs3)C[C@H]1[C@@H]1O[C@@H]12.[Br-]`: the concentration at 1 min came out at 3000 ng/mL in series [1] and 40000 ng/mL in series [2].
